pKi: −log10 of the molar value.
Biological target: human plasma kallikrein (Homo sapiens (Human), UniProt P03952)
Test: Plasma Kallikrein Activity Assay (chromogenic substrate S2302)
Type: biochemical
Details: 2 nM kallikrein, 80 μM S2302, 30° C., pH 7.8; Cheng-Prusoff
Protocol: Plasma Kallikrein Activity Assay.
The effect of compounds of the invention on human plasma kallikrein activity was determined using the chromogenic substrates (DiaPharma Group, Inc., West Chester, Ohio, USA). In these experiments, 2 nM kallikrein (Enzyme Research Laboratories, South Bend, Ind., USA) was incubated with 80 μM S2302 (H-D-Pro-Phe-Arg-p-nitroaniline) in the absence or presence of increasing concentrations of compounds of the invention in a final volume of 200 μL Tris-HCl buffer (200 mM NaCl; 2.5 mM CaCl2; 50 mM Tris-HCl, pH 7.8).
After incubation at 30° C., the activity of kallikrein was measured as a change in absorbance at OD 405 nm using BioTek PowerWave X340 Microplate Reader (Winooski, Vt., USA). Data were analyzed using SigmaPlot software (Systat Software, Inc., San Jose, Calif., USA) (Four Parameter Logistic Curve). Ki values for the inhibitors were determined using the Cheng-Prusoff equation (Biochem. Pharmacol. 1973, 22, 3099).

Chain of human plasma kallikrein (P03952 391-638): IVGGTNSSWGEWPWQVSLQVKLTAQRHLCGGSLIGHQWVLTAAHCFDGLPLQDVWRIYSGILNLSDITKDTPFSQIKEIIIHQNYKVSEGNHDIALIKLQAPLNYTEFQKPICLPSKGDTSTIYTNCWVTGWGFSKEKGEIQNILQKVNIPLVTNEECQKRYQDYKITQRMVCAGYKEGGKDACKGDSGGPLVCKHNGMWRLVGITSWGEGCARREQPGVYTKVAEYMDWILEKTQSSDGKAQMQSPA
Chain of human plasma kallikrein (P03952 20-390 partner): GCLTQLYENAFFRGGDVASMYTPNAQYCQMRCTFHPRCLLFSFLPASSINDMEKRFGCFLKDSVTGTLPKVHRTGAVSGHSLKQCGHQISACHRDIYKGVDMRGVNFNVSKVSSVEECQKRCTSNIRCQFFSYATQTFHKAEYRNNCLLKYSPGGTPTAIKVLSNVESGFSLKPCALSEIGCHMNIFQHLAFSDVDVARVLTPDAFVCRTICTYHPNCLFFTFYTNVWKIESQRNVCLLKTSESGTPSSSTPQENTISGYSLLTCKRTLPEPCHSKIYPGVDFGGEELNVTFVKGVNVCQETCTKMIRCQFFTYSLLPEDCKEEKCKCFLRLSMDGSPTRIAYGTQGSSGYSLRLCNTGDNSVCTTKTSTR

SMILES | pKi
N#Cc1cccc(C(N)(CCC2CC2)c2ccc(F)c(NC(=O)[C@H]3C[C@@H](O)CN3C(=O)Nc3ccc(Cl)cn3)c2)c1 (stereo partly drawn) [Compound 14h, (2R,4R)-N2-(5-(1-amino-1-(3-cyanophenyl)-3-cyclopropylpropyl)-2-fluorophenyl)-N1-(5-chloropyridin-2-yl)-4-hydroxypyrrolidine-1,2-dicarboxamide] | > 7.30
CC(C)(C)[S@@+]([O-])NC(CCC1CC1)(c1cccc(C#N)c1)c1ccc(F)c(NC(=O)[C@H]2C[C@H](O)CN2C(=O)Nc2ccc(Cl)cc2)c1 (stereo partly drawn) [Compound 9b, (2R,4S)-N1-(4-chlorophenyl)-N2-(5-((+)-1-(3-cyanophenyl)-3-cyclopropyl-1-((R)-1,1-dimethylethylsulfinamido)propyl)-2-fluorophenyl)-4-hydroxypyrrolidine-1,2-dicarboxamide] | < 7.00
NC(CCC1CC1)(c1ccncc1)c1ccc(F)c(NC(=O)[C@H]2C[C@@H](O)CN2C(=O)Nc2ccc(Cl)cn2)c1 (stereo partly drawn) [Compound 72c, (2R,4R)-N2-(5-((+)-1-amino-3-cyclopropyl-1-(pyridin-4-yl)propyl)-2-fluorophenyl)-N1-(5-chloropyridin-2-yl)-4-hydroxypyrrolidine-1,2-dicarboxamide] | > 7.30
N#Cc1cccc(C(N)(CCC2CC2)c2ccc(F)c(NC(=O)[C@H]3C[C@@H](O)CN3C(=O)Nc3ccc(Br)cc3)c2)c1 (stereo partly drawn) [Compound 23b, (2R,4R)-N2-(5-((+)-1-amino-1-(3-cyanophenyl)-3-cyclopropylpropyl)-2-fluorophenyl)-N1-(4-bromophenyl)-4-hydroxypyrrolidine-1,2-dicarboxamide] | 7.00 to 7.30
CO[C@@H]1C[C@H](C(=O)Nc2cc(C(N)(CCC3CC3)c3ccncc3)ccc2F)N(C(=O)Nc2ccc(Cl)cc2)C1 (stereo partly drawn) [Compound 71a, (2R,4R)-N2-(5-((+)-1-amino-3-cyclopropyl-1-(pyridin-4-yl)propyl)-2-fluorophenyl)-N1-(4-chlorophenyl)-4-methoxypyrrolidine-1,2-dicarboxamide] | > 7.30
CO[C@@H]1C[C@H](C(=O)Nc2cc(C(N)(CCC3CC3)c3cccc(C#N)c3)ccc2F)N(C(=O)Nc2ccc(Cl)cn2)C1 (stereo partly drawn) [Compound 18b, (2R,4R)-N2-(5-((+)-1-amino-1-(3-cyanophenyl)-3-cyclopropylpropyl)-2-fluorophenyl)-N1-(5-chloropyridin-2-yl)-4-methoxypyrrolidine-1,2-dicarboxamide] | > 7.30
NC(CCC1CC1)(c1ccncc1)c1ccc(F)c(NC(=O)[C@H]2CC(F)(F)CN2C(=O)Nc2ccc(Cl)cn2)c1 (stereo partly drawn) [Compound 53d, (R)-N2-(5-((+)-1-amino-3-cyclopropyl-1-(pyridin-4-yl)propyl)-2-fluorophenyl)-N1-(5-chloropyridin-2-yl)-4,4-difluoropyrrolidine-1,2-dicarboxamide] | > 7.30
N#Cc1cccc(C(N)(CCC2CC2)c2ccc(F)c(NC(=O)[C@H]3C[C@@H](O)CN3C(=O)Nc3ccc(F)cc3)c2)c1 (stereo partly drawn) [Compound 24b, (2R,4R)-N2-(5-((+)-1-amino-1-(3-cyanophenyl)-3-cyclopropylpropyl)-2-fluorophenyl)-N1-(4-fluorophenyl)-4-hydroxypyrrolidine-1,2-dicarboxamide] | < 7.00
CCNC(CCC1CC1)(c1ccncc1)c1ccc(F)c(NC(=O)[C@H]2C[C@@H](OC)CN2C(=O)Nc2ccc(Cl)cn2)c1 (stereo partly drawn) [Compound 77a, (2R,4R)-N1-(5-chloropyridin-2-yl)-N2-(5-((+)-3-cyclopropyl-1-(ethylamino)-1-(pyridin-4-yl)propyl)-2-fluorophenyl)-4-methoxypyrrolidine-1,2-dicarboxamide] | > 7.30
CC(C)(C)[S@@+]([O-])NC(CCC1CC1)(c1cccc(C#N)c1)c1ccc(F)c(NC(=O)[C@@H]2C[C@H](O)CN2C(=O)Nc2ccc(Cl)cc2)c1 (stereo partly drawn) [Compound 10b, (2S,4S)-N1-(4-chlorophenyl)-N2-(5-((−)-1-(3-cyanophenyl)-3-cyclopropyl-1-((R)-1,1-dimethylethylsulfinamido)propyl)-2-fluorophenyl)-4-hydroxypyrrolidine-1,2-dicarboxamide] | < 7.00
N#Cc1cccc(C(N)(CCC2CC2)c2ccc(F)c(NC(=O)[C@H]3C[C@](O)(c4ccccc4)CN3)c2)c1 (stereo partly drawn) [Compound 29d, (2R,4S)-N-(5-((−)-1-amino-1-(3-cyanophenyl)-3-cyclopropylpropyl)-2-fluorophenyl)-4-hydroxy-4-phenylpyrrolidine-2-carboxamide] | < 7.00
CO[C@]1(C(F)(F)F)C[C@H](C(=O)Nc2cc(C(N)(CCC3CC3)c3ccncc3)ccc2F)N(C(=O)Nc2ccc(Cl)cn2)C1 (stereo partly drawn) [Compound 57d, (2R,4R)-N2-(5-((+)-1-amino-3-cyclopropyl-1-(pyridin-4-yl)propyl)-2-fluorophenyl)-N1-(5-chloropyridin-2-yl)-4-methoxy-4-(trifluoromethyl)pyrrolidine-1,2-dicarboxamide] | > 7.30
N#Cc1cccc(C(N)(CCC2CC2)c2ccc(F)c(NC(=O)[C@H]3CCCN3C(=O)Nc3ccc(Cl)cn3)c2)c1 (stereo partly drawn) [Compound 13e, (R)-N2-(5-((+)-1-amino-1-(3-cyanophenyl)-3-cyclopropylpropyl)-2-fluorophenyl)-N1-(5-chloropyridin-2-yl)pyrrolidine-1,2-dicarboxamide] | < 7.00
CO[C@@H]1C[C@H](C(=O)Nc2cc(C(CCC3CC3)N3CCCCC3=O)ccc2F)N(C(=O)Nc2ccc(Cl)cn2)C1 (stereo partly drawn) [Compound 44e, (2R,4R)-N1-(5-chloropyridin-2-yl)-N2-(5-((+)-3-cyclopropyl-1-(2-oxopiperidin-1-yl)propyl)-2-fluorophenyl)-4-methoxypyrrolidine-1,2-dicarboxamide] | < 7.00
N#Cc1cccc(C(N)(CCC2CC2)c2ccc(F)c(NC(=O)[C@H]3C[C@@H](O)CN3C(=O)Nc3ccc(C(F)(F)F)cc3)c2)c1 (stereo partly drawn) [Compound 27b, (2R,4R)-N2-(5-((+)-1-amino-1-(3-cyanophenyl)-3-cyclopropylpropyl)-2-fluorophenyl)-4-hydroxy-N1-(4-(trifluoromethyl)phenyl)pyrrolidine-1,2-dicarboxamide] | < 7.00
N#Cc1cccc(C(N)(CCC2CC2)c2ccc(F)c(NC(=O)[C@H]3C[C@@H](O)CN3C(=O)Nc3ccc(N)cc3)c2)c1 (stereo partly drawn) [Compound 28b, (2R,4R)-N2-(5-((+)-1-amino-1-(3-cyanophenyl)-3-cyclopropylpropyl)-2-fluorophenyl)-N1-(4-aminophenyl)-4-hydroxypyrrolidine-1,2-dicarboxamide] | < 7.00
CO[C@@H]1C[C@H](C(=O)Nc2cc(C(CCC3CC3)(NC(C)=O)c3ccncc3)ccc2F)N(C(=O)Nc2ccc(Cl)cn2)C1 (stereo partly drawn) [Compound 73a, (2R,4R)-N2-(5-((+)-1-acetamido-3-cyclopropyl-1-(pyridin-4-yl)propyl)-2-fluorophenyl)-N1-(5-chloropyridin-2-yl)-4-methoxypyrrolidine-1,2-dicarboxamide] | > 7.30
CO[C@]1(c2ccccc2)C[C@H](C(=O)Nc2cc(C(N)(CCC3CC3)c3ccccn3)ccc2F)N(C(=O)Nc2ccc(Cl)cn2)C1 (stereo partly drawn) [Compound 35a, (2R,4S)-N2-(5-((+)-1-amino-3-cyclopropyl-1-(pyridin-2-yl)propyl)-2-fluorophenyl)-N1-(5-chloropyridin-2-yl)-4-methoxy-4-phenylpyrrolidine-1,2-dicarboxamide] | 7.00 to 7.30
CO[C@@H]1C[C@H](C(=O)Nc2cc(C(N)(CCC3CC3)c3ccncc3)ccc2F)N(C(=O)c2ccc3c(Cl)c[nH]c3c2)C1 (stereo partly drawn) [Compound 83a, (2R,4R)-N-(5-((+)-1-amino-3-cyclopropyl-1-(pyridin-4-yl)propyl)-2-fluorophenyl)-1-(3-chloro-1H-indole-6-carbonyl)-4-methoxypyrrolidine-2-carboxamide] | < 7.00
CO[C@@H]1C[C@H](C(=O)Nc2cc(C(N)(CCC3CC3)c3cccc(C#N)c3)ccc2F)N(C(=O)Nc2ccc(C#N)cc2)C1 (stereo partly drawn) [Compound 15f, (2R,4R)-N2-(5-((+)-1-amino-1-(3-cyanophenyl)-3-cyclopropylpropyl)-2-fluorophenyl)-N1-(4-cyanophenyl)-4-methoxypyrrolidine-1,2-dicarboxamide] | < 7.00
NC(CCC1CC1)(c1ccc(F)c(NC(=O)[C@H]2C[C@](O)(c3ccccc3)CN2C(=O)Nc2ccc(Cl)cc2)c1)c1ccccn1 (stereo partly drawn) [Compound 31i, (2R,4S)-N2-(5-((−)-1-amino-3-cyclopropyl-1-(pyridin-2-yl)propyl)-2-fluorophenyl)-N1-(4-chlorophenyl)-4-hydroxy-4-phenylpyrrolidine-1,2-dicarboxamide] | > 7.30
NC(CCC1CC1)(c1ccncc1)c1ccc(F)c(NC(=O)[C@H]2C[C@](O)(C(F)(F)F)CN2C(=O)Nc2ccc(Cl)cn2)c1 (stereo partly drawn) [Compound 54g, (2R,4R)-N2-(5-(1-amino-3-cyclopropyl-1-(pyridin-4-yl)propyl)-2-fluorophenyl)-N1-(5-chloropyridin-2-yl)-4-hydroxy-4-(trifluoromethyl)pyrrolidine-1,2-dicarboxamide] | > 7.30
C[C@@H]1C[C@H](C(=O)Nc2cc(C(N)(CCC3CC3)c3ccncc3)ccc2F)N(C(=O)Nc2ccc(Cl)cn2)C1 (stereo partly drawn) [Compound 49d, (2R,4R)-N2-(5-((+)-1-amino-3-cyclopropyl-1-(pyridin-4-yl)propyl)-2-fluorophenyl)-N1-(5-chloropyridin-2-yl)-4-methylpyrrolidine-1,2-dicarboxamide] | 7.00 to 7.30
CO[C@@H]1C[C@H](C(=O)Nc2cc(C(N)(CCC3CC3)c3ccncc3)ccc2F)N(C(=O)c2ccc(F)c(N)c2)C1 (stereo partly drawn) [Compound 85a, (2R,4R)-N-(5-((+)-1-amino-3-cyclopropyl-1-(pyridin-4-yl)propyl)-2-fluorophenyl)-1-(3-amino-4-fluorobenzoyl)-4-methoxypyrrolidine-2-carboxamide] | < 7.00

Source: patent US10562850B2, “Human plasma kallikrein inhibitors” (priority 2015, dated 2020)
